Legend:
[1] = tested on: SW620 (ATCC-CCL-227); experiment: Cell viability assay, G12V (SW620); format: cell-based, human; settings: Homo sapiens, SW-620; KRAS cell viability, SW620, 72 hrs, Cell Counting Kit-8
Experimental: (§1) The purpose of this cellular assay was to determine the effects of test compounds on the proliferation of human cancer cell lines NCI-H358 (ATCC-CRL5807) cells, AGS (ATCC-CRL-1739) cells, SW620 (ATCC-CCL-227) over a 3-day treatment period by quantifying the amount of NADPH present at endpoint using Cell Counting Kit-8.
(§2) Cells were seeded at 5,000 cells/well (NCI-H358), 2,000 cells/well (AGS) 2,000 cells/well (SW620) in 96-well assay plates (Corning-3699) and incubated overnight. On the day of the assay, diluted compounds were then added in a final concentration of 0.5% DMSO. After 72 hrs incubation, a tenth of the volume of cell counting kit 8 (Dnjindo-CK04) was added into each well. Read the signal (OD450 minus OD650) using EnVision after 2 hrs incubation. IC50 was determined by fitting a 4-parameter sigmoidal concentration response model.

[2] = biological target: KRAS G12C-BRAF complex (Homo sapiens (Human), UniProt P01116+P62937, G12C); experiment: KRAS-BRAF with CYPA (500 nM) interaction assay (TR-FRET), G12C; format: biochemical
Chain of KRAS G12C-BRAF complex (P01116-2 other isoform, or with tags, fused parts or gaps G12C): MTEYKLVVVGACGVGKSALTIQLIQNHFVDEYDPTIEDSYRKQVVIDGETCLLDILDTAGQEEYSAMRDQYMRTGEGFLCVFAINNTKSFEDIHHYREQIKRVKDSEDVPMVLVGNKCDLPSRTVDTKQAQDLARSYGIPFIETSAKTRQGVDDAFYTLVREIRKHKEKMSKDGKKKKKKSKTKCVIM
Chain of KRAS G12C-BRAF complex (P62937 whole entry): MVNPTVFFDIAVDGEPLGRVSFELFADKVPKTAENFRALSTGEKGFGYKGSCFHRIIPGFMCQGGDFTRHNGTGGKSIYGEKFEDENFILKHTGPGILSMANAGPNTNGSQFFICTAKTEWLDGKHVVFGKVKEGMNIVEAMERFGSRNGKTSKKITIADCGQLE
Experimental: (§3) In this example, TR-FRET was also used to measure the compound or compound-CYPA dependent disruption of the KRAS G12C-BRAF complex. This protocol was also used to measure disruption of KRAS G12D or KRAS G12V binding to BRAF by a compound of the invention, respectively. In assay buffer containing 25 mM HEPES PH=7.4 (4-(2-hydroxyethyl)-1-piperazineethanesulfonic acid, Thermo, 15630080), 0.002% Tween20, 0.1% BSA, 100 mM NaCl, 5 mM MgCl2, 10 μM GMPPNP (Guanosine 5′-[β,γ-imido]triphosphate trisodium salt hydrate, Sigma, G0635), […] 384-well assay plate at final concentrations of 50 nM, 6.25 nM and 1 nM, respectively. Compound was present in plate wells as a 16-point 3-fold dilution series starting at a final concentration of 10 μM and incubated for 3 hours. A mixture of MAb Anti-6His-XL665 (Cisbio, 61HISXLB) and Mab anti-GST-TB cryptate (Cisbio, 61GSTTLB) was then added at a final concentration of 6.67 nM and 0.21 nM, respectively, and the plate was incubated for an additional 1.5 hours. TR-FRET signal was read on a PHERstar FSX microplate reader (Ex320 nm, Em 665/615 nm). Compounds that facilitate disruption of the KRAS-BRAF complex were identified as those eliciting a decrease in the TR-FRET ratio relative to DMSO control wells.

[3] = biological target: KRAS G12V binding to BRAF (Homo sapiens (Human), UniProt P01116+P62937, G12V); experiment: KRAS-BRAF with CYPA (500 nM) interaction assay (TR-FRET), G12V; format: biochemical
Chain of KRAS G12V binding to BRAF (P01116-2 other isoform, or with tags, fused parts or gaps G12V): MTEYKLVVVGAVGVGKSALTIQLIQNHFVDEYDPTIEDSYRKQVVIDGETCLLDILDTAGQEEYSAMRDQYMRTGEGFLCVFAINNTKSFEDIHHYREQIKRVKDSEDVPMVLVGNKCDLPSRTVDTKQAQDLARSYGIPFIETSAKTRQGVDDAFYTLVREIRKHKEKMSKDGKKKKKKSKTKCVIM
Chain of KRAS G12V binding to BRAF (P62937 whole entry): as the sequence (P62937 whole entry) above
Experimental: In this example, TR-FRET was also used to measure the compound or compound-CYPA dependent disruption of the KRAS G12C-BRAF complex. This protocol was also used to measure disruption of KRAS G12D or KRAS G12V binding to BRAF by a compound of the invention, respectively. In assay buffer containing 25 mM HEPES PH=7.4 (4-(2-hydroxyethyl)-1-piperazineethanesulfonic acid, Thermo, 15630080), 0.002% Tween20, 0.1% BSA, 100 mM NaCl, 5 mM MgCl2, 10 μM GMPPNP (Guanosine 5′-[β,γ-imido]triphosphate trisodium salt hydrate, Sigma, G0635), […], GMPPNP loaded 6His-KRAS proteins, and […], 6.25 nM and 1 nM, respectively. Compound was present in plate wells as a 16-point 3-fold dilution series starting at a final concentration of 10 μM and incubated for 3 hours. A mixture of MAb Anti-6His-XL665 (Cisbio, 61HISXLB) and Mab anti-GST-TB cryptate (Cisbio, 61GSTTLB) was then added at a final concentration of 6.67 nM and 0.21 nM, respectively, and the plate was incubated for an additional 1.5 hours. TR-FRET signal was read on a PHERstar FSX microplate reader (Ex320 nm, Em 665/615 nm). Compounds that facilitate disruption of the KRAS-BRAF complex were identified as those eliciting a decrease in the TR-FRET ratio relative to DMSO control wells.

[4] = tested on: NCI-H358 (ATCC-CRL5807) cells; experiment: Cell viability assay, G12C (NCI-H358); format: cell-based, human; settings: Homo sapiens; KRAS cell viability, NCI-H358, 72 hrs, Cell Counting Kit-8
Experimental: as §1, §2

[5] = tested on: AGS (ATCC-CRL-1739) cells; experiment: Cell viability assay, G12D (AGS); format: cell-based, human; settings: Homo sapiens, KRAS cell viability, 72 hrs, Cell Counting Kit-8
Experimental: as §1, §2

[6] = tested on: phosphorylation of ERK, KRAS G12C in NCJ-H358 cells; experiment: pERK inhibition assay, KRAS G12C; format: cell-based, human; settings: Homo sapiens, 4 hours
Experimental: (§4) This assay is to measure the ability of test compounds in inhibiting the phosphorylation of ERK, the downstream signaling of KRAS G12C in NCJ-H358 cells, KRAS G12D in AGS cells, and KRAS G12V in SW620. NCJ-H358 (ATCC-CRL5807) cells, AGS (ATCC-CRL-1739) cells, SW620 (ATCC-CCL-227) cells were all grown and maintained using RPMI-1640 medium (Thermo Fisher Scientific) with 10% fetal bovine serum and 1% penicillin/streptomycin. On the day prior to compound addition, cells were plated in tissue culture-treated 96 well plates (Corning-3699) at a density of 30,000 cell/well, 20,000 cell/well, 30,000 cell/well for NCJ-H358, AGS and SW620 respectively, and allowed for attachment overnight. Diluted compounds were then added in a final concentration of 0.5% DMSO. After 4 hours of incubation, the medium was removed, 100 μL of 4% formaldehyde was added, and the assay plates were incubated at room temperature for 20 minutes. The plates were then washed once with phosphate buffered saline (PBS), and permeabilized with 100 μL of chilled methanol for 10 minutes. Non-specific antibody binding to the plates was blocked using 50 μL 1×BSA blocking buffer (Thermo-37520, 10-fold dilution by Phosphate-Buffered Saline Tween (PBST) for at least 1 hour at room temperature.
(§5) The amount of phosphor-ERK was determined using an antibody specific for phosphorylated form of ERK. Primary antibody (pERK, CST-4370, Cell Signaling Technology) was diluted 1:300 in blocking buffer, with 50 μL aliquoted to each well, and incubated overnight at 4′° C. Cells was washed five times for 5 minutes with PBST. Secondary antibody ([…] anti-rabbit IgG, CST-7074, Cell Signaling Technology) was diluted 1:1000 in blocking buffer, and 50 μL was added to each well and incubated 1-2 hrs at room temperature. Cells was washed 5 times for 5 minutes with PBST, 100 μL TMB ELISA substrate (abcam-ab171523) were added and gently shake for 20 minutes. 50 μL stop solution (abcam-ab171529) were added, and then read the signal (OD450) by EnVision.
(§6) IC50 was determined by fitting a 4-parameter sigmoidal concentration response model.

[7] = biological target: KRAS G12D binding to BRAF (Homo sapiens (Human), UniProt P01116+P62937, G12D); experiment: KRAS-BRAF with CYPA (500 nM) interaction assay (TR-FRET), G12D; format: biochemical
Chain of KRAS G12D binding to BRAF (P01116-2 other isoform, or with tags, fused parts or gaps G12D): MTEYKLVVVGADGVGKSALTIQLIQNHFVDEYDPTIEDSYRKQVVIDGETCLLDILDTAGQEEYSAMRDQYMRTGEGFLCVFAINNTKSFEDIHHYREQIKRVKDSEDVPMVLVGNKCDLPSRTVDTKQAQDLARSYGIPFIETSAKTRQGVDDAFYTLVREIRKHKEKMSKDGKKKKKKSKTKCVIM
Chain of KRAS G12D binding to BRAF (P62937 whole entry): as the sequence (P62937 whole entry) above
Experimental: as §3

[8] = tested on: phosphorylation of ERK, KRAS G12V in SW620; experiment: pERK inhibition assay, KRAS G12V; format: cell-based, human; settings: Homo sapiens, SW-620, SW620, 4 hours
Experimental: as §4, §5, §6

CCn1c(-c2cc(N3CCN(CC(F)(F)F)CC3)cnc2[C@H](C)OC)c2c3cc(c(F)cc31)-c1csc(n1)C[C@H](NC(=O)[C@H](C(C)C)N1CCC3(CCN(C(=O)[C@H](F)Cl)CC3)C1=O)C(=O)N1CCC[C@H](N1)C(=O)OCC(C)(C)C2 (atropisomer, axis not shown; (M)) [Example 39, (2S)-2-[8-[(2R)-2-chloro-2-fluoro-acetyl]-1-oxo-2,8-diazaspiro[4.5]decan-2-yl]-N-[(7S,13S)-21-ethyl-24-fluoro-(20M)-20-[2-[(1S)-1-methoxyethyl]-5-[4-(2,2,2-trifluoroethyl)piperazin-1-yl]-3-pyridyl]-17,17-dimethyl-8,14-dioxo-15-oxa-4-thia-9,21,27,28-tetrazapentacyclo[17.5.2.1^2,5.1^9,13.0^22,26]octacosa-1(25),2,5(28),19,22(26),23-hexaen-7-yl]-3-methyl-butanamide]
IC50 [1]: 184 nM | IC50 [2]: 104 nM | IC50 [3]: > 10 µM | IC50 [4]: < 1 nM | IC50 [5]: 112 nM | IC50 [6]: 6 nM | IC50 [7]: > 10 µM | IC50 [8]: 44 nM

CCn1c(-c2cc(N3CCN(C)CC3)cnc2[C@H](C)OC)c2c3cc(c(F)cc31)-c1csc(n1)C[C@H](NC(=O)[C@@H](COC1CN(C(=O)[C@H](F)Cl)C1)C(C)C)C(=O)N1CCC[C@H](N1)C(=O)OCC(C)(C)C2 (atropisomer, axis not shown; (M)) [Example 40, (2R)-2-[[1-[(2R)-2-chloro-2-fluoro-acetyl]azetidin-3-yl]oxymethyl]-N-[(7S,13S)-21-ethyl-24-fluoro-(20M)-20-[2-[(1S)-1-methoxyethyl]-5-(4-methylpiperazin-1-yl)-3-pyridyl]-17,17-dimethyl-8,14-dioxo-15-oxa-4-thia-9,21,27,28-tetrazapentacyclo[17.5.2.1^2,5.1^9,13.0^22,26]octacosa-1(25),2,5(28),19,22(26),23-hexaen-7-yl]-3-methyl-butanamide]
IC50 [1]: 63 nM | IC50 [2]: 108 nM | IC50 [3]: > 10 µM | IC50 [4]: < 1 nM | IC50 [5]: 1110 nM | IC50 [6]: 10 nM | IC50 [7]: > 10 µM | IC50 [8]: 23 nM

CO[C@@H](C)c1ncc(N2CCN(CC(F)(F)F)CC2)cc1-c1c2c3cc(c(F)cc3n1CC(F)(F)F)-c1csc(n1)C[C@H](NC(=O)[C@H](C(C)C)N1CCCC3(CCN(C(=O)[C@H](F)Cl)CC3)C1=O)C(=O)N1CCC[C@H](N1)C(=O)OCC(C)(C)C2 (atropisomer, axis not shown; (M)) [Example 42, (2S)-2-[9-[(2R)-2-chloro-2-fluoro-acetyl]-1-oxo-2,9-diazaspiro[5.5]undecan-2-yl]-N-[(7S,13S)-24-fluoro-(20M)-20-[2-[(1S)-1-methoxyethyl]-5-[4-(2,2,2-trifluoroethyl)piperazin-1-yl]-3-pyridyl]-17,17-dimethyl-8,14-dioxo-21-(2,2,2-trifluoroethyl)-15-oxa-4-thia-9,21,27,28-tetrazapentacyclo[17.5.2.1^2,5.1^9,13.0^22,26]octacosa-1(25),2,5(28),19,22(26),23-hexaen-7-yl]-3-methyl-butanamide]
IC50 [1]: 82 nM | IC50 [2]: 73 nM | IC50 [3]: 7.86 µM | IC50 [4]: < 1 nM | IC50 [5]: 44 nM | IC50 [6]: 3 nM | IC50 [7]: 3.97 µM | IC50 [8]: 24 nM

CO[C@@H](C)c1ncc(N2CCN(CC(F)(F)F)CC2)cc1-c1c2c3cc(c(F)cc3n1CC(F)(F)F)-c1csc(n1)C[C@H](NC(=O)[C@H](C(C)C)N(C)C(=O)C1(F)CCN(C(=O)[C@H](F)Cl)CC1)C(=O)N1CCC[C@H](N1)C(=O)OCC(C)(C)C2 (atropisomer, axis not shown; (M)) [Example 44, 1-[(2R)-2-chloro-2-fluoro-acetyl]-4-fluoro-N-[(1S)-1-[[(7S,13S)-24-fluoro-(20M)-20-[2-[(1S)-1-methoxyethyl]-5-[4-(2,2,2-trifluoroethyl)piperazin-1-yl]-3-pyridyl]-17,17-dimethyl-8,14-dioxo-21-(2,2,2-trifluoroethyl)-15-oxa-4-thia-9,21,27,28-tetrazapentacyclo[17.5.2.1^2,5.1^9,13.0^22,26]octacosa-1(25),2,5(28),19,22(26),23-hexaen-7-yl]carbamoyl]-2-methyl-propyl]-N-methyl-piperidine-4-carboxamide]
IC50 [1]: > 5000 nM | IC50 [2]: 34 nM | IC50 [3]: 0.607 µM | IC50 [4]: < 1 nM | IC50 [5]: 134 nM | IC50 [6]: 10 nM | IC50 [7]: 1.34 µM | IC50 [8]: 44 nM

— patent US20250206761A1, “HALOINDOLE MACROCYCLIC COMPOUNDS FOR THE TREATMENT OF CANCER” (Hoffmann-La Roche Inc., priority 2022, published 2025)
